{"source": "patent US20100113430A1", "about": "“THIOXANTHENE DERIVATES USEFUL TO TREAT INFECTIOUS DISEASES” (BKG PHARMA APS, priority 2007, published 2010)", "type_in_all_cases": "cell-based", "key": {"[1]": {"system": "clinically relevant resistant bacterial isolate S. Aureus", "assay": "Growth inhibition by cis/trans combinations, resistant isolate S. Aureus", "settings": "Trans-compound 0.5 μg/ml, Cis-compound 0 μg/ml", "procedure": "(§1) Cell growth was tested using the Minimal Inhibitory Concentration (MIC) susceptibility tests by use of the microdilution broth method in accordance to the NCCLS Guidelines (NCCLS Guidelines, Methods for Dilution Antimicrobial Susceptibility Tests for Bacteria That Grow Aerobically; Approved Standard, Sixth Edition, Volume 23; Number 2). The minimum inhibitory concentration (MIC), is defined ad the lowest concentration of drug which inhibits growth of the test organism, in the sense that no visible growth is detected (total inhibition of growth). In example 2 MIC of the compounds used on fungal microorganisms was determined from the IC90 measurements according to NCCLS Guidelines.\n(§2) A log phase culture of bacteria was diluted with fresh pre-warmed Mueller-Hinton medium and adjusted to a defined OD at 600 nm in order to give a final concentration of 1×10^4-5 bacteria/ml medium. The bacterial culture was transferred to microtiter-plates and culture was added to each well. Drug was added to the bacterial culture in the wells as two-fold dilution series of drug in order to give final concentrations ranging from 0.03 to 128 μg/ml. Trays were incubated at 37° C. by shaking in a robot analyzer, PowerWavex, software KC^4′ Kebo.Lab, Copenhagen, for 16 h and optical densities were measured at 600 nm during the incubation time in order to record growth curves. […]"}, "[2]": {"system": "resistant and susceptible clinical bacterial isolates", "assay": "Susceptibility of resistant versus susceptible bacterial isolates (Example 3)", "settings": "isolates of Tables 3a and 3b", "procedure": "as §1, §2"}, "[3]": {"system": "Candida albicans clinical isolate", "assay": "MIC (90% growth inhibition), broth microdilution NCCLS M27-A, Candida albicans", "settings": "strain 1. Candida albicans FR (fluconazole resistant)", "procedure": "as §1\nThe antibacterial effect of demethylated/dealkylated phenothiazine or thioxanthene compounds were studied by growth inhibition studies exposing cells to 0-32 μg/ml of drug. Each experiment was repeated in triplicate. MIC values represent the mean values of two separate triplicate experiments.\n(§3) 4 clinical isolates of Candida sp. (including 3 fluconazole resistant isolates) were subcultured for 24 h on Sabouraud glucose agar before susceptibility testing. Broth microdilution tests were performed according to NCCLS document M27-A (Ref: National Committee for Clinical Laboratory Standards. (1997). Reference Method for Broth Dilution Antifungal Susceptibility Testing of Yeasts: Approved Standard M27-A. NCCLS, Wayne, Pa.). Microtitre plates were read spectrophotometrically at 530 nm, after mixing the wells by pipetting to resuspend yeast sediments. In this experiment, the MIC was defined as the lowest drug dilution resulting in 90% growth inhibition."}, "[4]": {"system": "uninfected MT4 cells", "assay": "Cytotoxic effect in uninfected MT4 cultures", "settings": "six days", "procedure": "Compounds were examined for possible antiviral activity against strain IIIB of HIV-1 using MT4 cells as target cells. MT4 cells were incubated with virus (0.005 MOI) and growth medium containing the test dilutions of compound(s) for six days in parallel with virus-infected and uninfected control cultures without compound added. Expression of HIV in the cultures was indirectly quantified using the MTT assay as previously described. Compounds mediating less than 30% reduction of HIV expression were considered without biological activity. Compounds were tested in parallel for cytotoxic effect in uninfected MT4 cultures containing the test dilutions of compound as described above. Cultures for test of both antiviral activity and cytotoxic effect were set up in triple duplicates, 200 ml per culture in micro titre plates. A 30% inhibition of cell growth relative to control cultures was considered significant. The 50% inhibitory concentration was determined by interpolation from the plots of percent inhibition versus concentration of compound. CC50 is defined as the inhibitory concentration that reduces cellular growth or viability of uninfected cells by 50%."}, "[5]": {"system": "multiresistant clinical isolate of Staphylococcus epidermidis", "assay": "MIC, microdilution broth method (NCCLS), Staphylococcus epidermidis", "procedure": "as §1\nA log phase culture of bacteria was diluted with fresh pre-warmed Mueller-Hinton medium and adjusted to a defined OD at 600 nm in order to give a final concentration of 1×10^4-5 bacteria/ml medium. The bacterial culture was transferred to microtiter-plates and culture was added to each well. […] Trays were incubated at 37° C. by shaking in a robot analyzer, PowerWavex, software KC^4′ Kebo.Lab, Copenhagen, for 16 h and optical densities were measured at 600 nm during the incubation time in order to record growth curves. Wells containing bacterial culture without drug were used as controls to ensure correct inoculum size and bacterial growth during the incubation. Cultures were tested in order to detect contaminations. Each experiment was repeated in triplicate.\nA clinically relevant isolate of Staphylococcus epidermidis was cultured and assayed as described above for susceptibility towards the compounds listed in table 1."}, "[6]": {"system": "Candida glabrata clinical isolates", "assay": "MIC (90% growth inhibition), broth microdilution NCCLS M27-A, Candida glabrata", "procedure": "as §1, with “Guidelines. […]” for “Guidelines.”\nas §3"}, "[7]": {"system": "Enterococcus faecalis resistant clinical isolates", "assay": "MIC/IC90, resistant clinical isolates of Enterococcus faecalis", "procedure": "as §1\nA log phase culture of bacteria was diluted with fresh pre-warmed Mueller-Hinton medium and adjusted to a defined OD at 600 nm in order to give a final concentration of 1×10^4-5 bacteria/ml medium. The bacterial culture was transferred to microtiter-plates and culture was added to each well. Drug was added to the bacterial culture in the wells as two-fold dilution series of drug in order to give final concentrations ranging from 0.03 to 128 μg/ml. Trays were incubated at 37° C. by shaking in a robot analyzer, PowerWavex, software KC^4′ Kebo.Lab, Copenhagen, for 16 h and optical densities were measured at 600 nm during the incubation time in order to record growth curves. Wells containing bacterial culture without drug were used as controls to ensure correct inoculum size and bacterial growth during the incubation. Cultures were tested in order to detect contaminations. Each experiment was repeated in triplicate. MIC values represent the mean values of two separate triplicate experiments. Intra- and interassay variation was <5%.\nInhibition 90 (IC90) is defined as: OD responding a 90% growth inhibition.\nClinically relevant isolates were cultured and assayed as described above."}, "[8]": {"settings": "Enterococcus faecalis 10, BLR, CR"}}, "data": [{"compound": "Clc1ccc2c(c1)/C(=C/CCN1CCNCC1)c1ccccc1S2", "note": "[N-dealkyl-trans-clopenthixol, trans-1-(3-(2-chloro-thioxanthen-9-ylidene)propyl)piperazine]", "values": [{"measurement": "Growth inhibition", "setting": "[1]", "value": 100, "unit": "%"}, {"measurement": "difference in susceptibility between resistant and susceptible isolates", "setting": "[2]", "value": "No difference in susceptibility"}, {"measurement": "MIC", "setting": "[3]", "value": 1, "unit": "µg/mL"}, {"measurement": "CC50", "setting": "[4]", "value": "> 3000", "unit": "nM"}, {"measurement": "MIC", "setting": "[5]; Staphylococcus epidermidis multiresistant isolate, Example 6, isomers alone and 1:1 mixture", "value": 0.5, "unit": "µg/mL"}, {"measurement": "MIC", "setting": "[5]; multiresistant clinical isolate of Staphylococcus epidermidis, Example 1", "value": 0.5, "unit": "µg/mL"}, {"measurement": "MIC", "setting": "[6]; strain 2. Candida glabrata FR (fluconazole resistant)", "value": 1, "unit": "µg/mL"}, {"measurement": "MIC", "setting": "[6]; strain 4. Candida glabrata FR (fluconazole resistant)", "value": 0.5, "unit": "µg/mL"}, {"measurement": "MIC", "setting": "[6]; strain 5. Candida glabrata", "value": 0.5, "unit": "µg/mL"}, {"measurement": "IC90", "setting": "[7]; Enterococcus faecalis 1, VanA", "value": 0.6, "unit": "µg/mL"}, {"measurement": "MIC", "setting": "[7]; Enterococcus faecalis 1, VanA", "value": 1, "unit": "µg/mL"}, {"measurement": "IC90", "setting": "[7]; Enterococcus faecalis 2, VanA", "value": 0.6, "unit": "µg/mL"}, {"measurement": "MIC", "setting": "[7]; Enterococcus faecalis 2, VanA", "value": 1, "unit": "µg/mL"}, {"measurement": "MIC", "setting": "[7]; Enterococcus faecalis 3, VanA", "value": 1, "unit": "µg/mL"}, {"measurement": "IC90", "setting": "[7]; Enterococcus faecalis 4, VanB", "value": 0.6, "unit": "µg/mL"}, {"measurement": "MIC", "setting": "[7]; Enterococcus faecalis 4, VanB", "value": 1, "unit": "µg/mL"}, {"measurement": "IC90", "setting": "[7]; Enterococcus faecalis 5, Van B", "value": 1, "unit": "µg/mL"}, {"measurement": "MIC", "setting": "[7]; Enterococcus faecalis 5, Van B", "value": 2, "unit": "µg/mL"}, {"measurement": "IC90", "setting": "[7]; Enterococcus faecalis 6, VanB", "value": 0.6, "unit": "µg/mL"}, {"measurement": "MIC", "setting": "[7]; Enterococcus faecalis 6, VanB", "value": 1, "unit": "µg/mL"}, {"measurement": "IC90", "setting": "[7]; Enterococcus faecalis 7, VanA", "value": 0.6, "unit": "µg/mL"}, {"measurement": "MIC", "setting": "[7]; Enterococcus faecalis 7, VanA", "value": 1, "unit": "µg/mL"}, {"measurement": "IC90", "setting": "[7]; Enterococcus faecalis 8, HLAR", "value": 0.6, "unit": "µg/mL"}, {"measurement": "MIC", "setting": "[7]; Enterococcus faecalis 8, HLAR", "value": 1, "unit": "µg/mL"}, {"measurement": "IC90", "setting": "[7]; Enterococcus faecalis 9, HLAR", "value": 0.6, "unit": "µg/mL"}, {"measurement": "MIC", "setting": "[7]; Enterococcus faecalis 9, HLAR", "value": 1, "unit": "µg/mL"}, {"measurement": "IC90", "setting": "[7]; [8]", "value": 0.6, "unit": "µg/mL"}, {"measurement": "MIC", "setting": "[7]; [8]", "value": 1, "unit": "µg/mL"}]}]}
